Legend:
Histone deacetylase 1 [1] = target: T1, Histone deacetylase 1 (Homo sapiens, UniProt Q13547); assay: Inhibition of human KDAC1 using substrate A after 60 mins by fluorescence assay
Histone deacetylase 3 [2] = target: T2, Histone deacetylase 3 (Homo sapiens, UniProt O15379); assay: Inhibition of human KDAC3 using FITC-labeled p53 acetylated peptide as substrate after 60 mins by fluorescence assay
[3] = target: T3, Protein deacetylase HDAC6 (Homo sapiens, UniProt Q9UBN7); assay: Inhibition of human KDAC6 using FITC-labeled histone H4 acetylated peptide as substrate after 60 mins by fluorescence assay
T3 sequence (Q9UBN7 whole entry): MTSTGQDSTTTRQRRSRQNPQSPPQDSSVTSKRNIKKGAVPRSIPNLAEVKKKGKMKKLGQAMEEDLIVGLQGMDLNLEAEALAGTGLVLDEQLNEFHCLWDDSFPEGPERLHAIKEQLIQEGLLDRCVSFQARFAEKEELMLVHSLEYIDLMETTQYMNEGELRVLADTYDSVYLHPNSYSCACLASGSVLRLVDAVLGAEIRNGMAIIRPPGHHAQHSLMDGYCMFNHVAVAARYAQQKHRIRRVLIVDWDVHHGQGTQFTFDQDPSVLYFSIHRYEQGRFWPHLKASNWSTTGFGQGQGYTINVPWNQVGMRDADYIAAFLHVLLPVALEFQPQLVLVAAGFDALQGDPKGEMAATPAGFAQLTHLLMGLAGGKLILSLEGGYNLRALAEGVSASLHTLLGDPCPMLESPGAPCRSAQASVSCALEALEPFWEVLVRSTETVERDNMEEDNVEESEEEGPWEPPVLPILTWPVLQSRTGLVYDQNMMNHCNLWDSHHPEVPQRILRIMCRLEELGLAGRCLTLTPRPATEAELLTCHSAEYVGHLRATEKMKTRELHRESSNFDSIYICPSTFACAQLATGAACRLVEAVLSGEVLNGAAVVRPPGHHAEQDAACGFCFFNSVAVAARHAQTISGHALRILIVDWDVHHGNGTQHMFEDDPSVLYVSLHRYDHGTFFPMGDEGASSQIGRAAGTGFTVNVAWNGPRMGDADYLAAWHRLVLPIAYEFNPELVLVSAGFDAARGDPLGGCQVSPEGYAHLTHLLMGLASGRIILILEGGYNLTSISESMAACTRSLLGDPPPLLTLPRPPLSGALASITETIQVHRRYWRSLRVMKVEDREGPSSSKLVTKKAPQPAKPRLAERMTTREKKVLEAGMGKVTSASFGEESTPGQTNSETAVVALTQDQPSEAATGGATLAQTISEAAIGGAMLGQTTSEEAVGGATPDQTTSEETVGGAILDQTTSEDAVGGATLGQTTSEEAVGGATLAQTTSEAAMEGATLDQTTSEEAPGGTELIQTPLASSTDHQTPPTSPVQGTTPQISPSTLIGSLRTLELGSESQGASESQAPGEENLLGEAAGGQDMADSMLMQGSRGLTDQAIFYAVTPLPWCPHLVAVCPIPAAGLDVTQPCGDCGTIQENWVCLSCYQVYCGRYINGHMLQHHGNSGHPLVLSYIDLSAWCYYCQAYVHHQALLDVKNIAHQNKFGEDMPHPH

[4] = target: T4, Histone deacetylase 8 (Homo sapiens) (UniProt Q9BY41); assay: Inhibition of human KDAC8 at 30 uM after 60 mins by fluorescence assay relative to control
T4 sequence (whole entry): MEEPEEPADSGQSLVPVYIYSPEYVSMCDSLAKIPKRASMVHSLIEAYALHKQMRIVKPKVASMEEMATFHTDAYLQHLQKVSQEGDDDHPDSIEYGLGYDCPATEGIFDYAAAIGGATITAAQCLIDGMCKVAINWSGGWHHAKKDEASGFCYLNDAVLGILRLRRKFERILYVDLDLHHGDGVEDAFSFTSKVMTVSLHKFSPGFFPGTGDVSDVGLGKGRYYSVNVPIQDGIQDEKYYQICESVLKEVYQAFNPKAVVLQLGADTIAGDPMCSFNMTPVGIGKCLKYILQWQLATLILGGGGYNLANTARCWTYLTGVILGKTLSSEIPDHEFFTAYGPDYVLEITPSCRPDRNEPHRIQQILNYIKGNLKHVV

Histone deacetylase 1 [5] = target: T1, Histone deacetylase 1; assay: Inhibition of human KDAC1 at 30 uM using substrate A after 60 mins by fluorescence assay relative to control
[6] = target: T5, Protein deacetylase HDAC6 (Homo sapiens) (UniProt Q9UBN7); conditions: at 30 µM
T5 sequence (whole entry): T3 sequence (Q9UBN7 whole entry)
Description: Inhibition of human KDAC6 at 30 uM using FITC-labeled histone H4 acetylated peptide as substrate after 60 mins by fluorescence assay relative to control

Histone deacetylase 3 [7] = target: T2, Histone deacetylase 3; assay: Inhibition of human KDAC3 at 30 uM using FITC-labeled p53 acetylated peptide as substrate after 60 mins by fluorescence assay relative to control
Histone deacetylase 8 = target: T6, Histone deacetylase 8 (Homo sapiens, UniProt Q9BY41); assay: Inhibition of human KDAC8 after 60 mins by fluorescence assay
T6 sequence (Q9BY41 whole entry): T4 sequence (whole entry)

T2 sequence (O15379 whole entry): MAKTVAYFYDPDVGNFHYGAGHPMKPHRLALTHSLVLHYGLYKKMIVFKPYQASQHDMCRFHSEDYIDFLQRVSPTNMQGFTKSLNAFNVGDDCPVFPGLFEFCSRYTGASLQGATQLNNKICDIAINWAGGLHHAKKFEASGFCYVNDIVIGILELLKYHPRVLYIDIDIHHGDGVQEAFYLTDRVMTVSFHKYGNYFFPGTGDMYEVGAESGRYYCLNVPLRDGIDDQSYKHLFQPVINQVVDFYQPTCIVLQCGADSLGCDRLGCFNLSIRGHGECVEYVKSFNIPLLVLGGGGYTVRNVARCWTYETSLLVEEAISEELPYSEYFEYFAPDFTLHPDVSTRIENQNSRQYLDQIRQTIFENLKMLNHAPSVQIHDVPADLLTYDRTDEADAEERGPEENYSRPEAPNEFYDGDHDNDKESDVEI
T1 sequence (Q13547 whole entry): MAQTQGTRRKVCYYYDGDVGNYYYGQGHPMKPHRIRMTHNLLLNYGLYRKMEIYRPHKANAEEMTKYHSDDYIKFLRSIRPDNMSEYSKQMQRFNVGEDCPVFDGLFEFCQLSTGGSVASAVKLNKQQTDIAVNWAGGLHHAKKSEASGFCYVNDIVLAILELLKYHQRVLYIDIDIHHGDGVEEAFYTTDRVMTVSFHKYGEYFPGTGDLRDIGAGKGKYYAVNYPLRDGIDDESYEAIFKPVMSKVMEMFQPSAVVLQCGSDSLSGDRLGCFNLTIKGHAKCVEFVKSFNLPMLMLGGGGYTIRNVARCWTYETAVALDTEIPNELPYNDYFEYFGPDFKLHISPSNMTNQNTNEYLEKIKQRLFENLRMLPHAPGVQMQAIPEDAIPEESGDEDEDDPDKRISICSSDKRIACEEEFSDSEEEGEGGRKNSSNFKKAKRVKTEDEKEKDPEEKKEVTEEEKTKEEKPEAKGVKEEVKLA

SMILES	IC50 (Histone deacetylase 1 [1]) [µM]	IC50 (Histone deacetylase 3 [2]) [µM]	IC50 [3] [µM]	inhibition [4] [%]	inhibition (Histone deacetylase 1 [5]) [%]	inhibition [6] [%]	inhibition (Histone deacetylase 3 [7]) [%]	IC50 (Histone deacetylase 8) [µM]
CSCC[C@@H]1N=C(c2ccccc2)c2ccccc2N(CCCCC(=O)NO)C1=O	6.43	0.43	1.7	57.7	81.6	93.1	98.9	20.3
C[C@H](OCc1ccccc1)[C@@H]1N=C(c2ccccc2)c2ccccc2NC1=O	> 30	> 30	> 30	9.14	1.5	3.08	2.49	> 30
O=C(C[C@@H]1N=C(c2ccccc2)c2ccccc2NC1=O)NC(c1ccccc1)(c1ccccc1)c1ccccc1	> 30	> 30	> 30	0	4.31	0	0	> 30
CC(C)(C)SC[C@H]1N=C(c2ccccc2)c2ccccc2NC1=O	> 30	> 30	> 30	16.1	4.1	2.05	2.88	> 30
CC(C)(C)Oc1ccc(C[C@@H]2N=C(c3ccccc3)c3ccccc3NC2=O)cc1	> 30	> 30	> 30	0	4.79	0	0	> 30
CC(C)[C@@H]1N=C(c2ccccc2)c2ccccc2N(CCCCC(=O)O)C1=O	> 30	> 30	> 30	3.18	2.24	0	0	> 30
Cc1c(C)c(S(=O)(=O)NC(=N)NCCC[C@@H]2N=C(c3ccccc3)c3ccccc3NC2=O)c(C)c2c1OC(C)(C)C2	> 30	> 30	> 30	7.99	8	0	0.47	> 30
CC(C)(C)OC(=O)NCCCC[C@@H]1N=C(c2ccccc2)c2ccccc2N(CCCCC(=O)NO)C1=O	4.63	0.59	3.06	56	84.4	89.9	98.8	21.8
COC(=O)CCCCN1C(=O)[C@H](C(C)C)N=C(c2ccccc2)c2ccccc21	> 30	> 30	> 30	9.56	12.5	0	0	> 30
O=C(CCCCN1C(=O)[C@H](CO)N=C(c2ccccc2)c2ccccc21)NO	> 30	4.94	6.35	19.9	41	74.4	85.9	> 30
COC(=O)CCCCN1C(=O)[C@H](CC(=O)OC(C)(C)C)N=C(c2ccccc2)c2ccccc21	> 30	> 30	> 30	0	3.65	0	0	> 30
C[C@@H]1N=C(c2ccccc2)c2ccccc2NC1=O	> 30	> 30	> 30	0	7.49	0	0	> 30
N=C(N)NCCC[C@@H]1N=C(c2ccccc2)c2ccccc2N(CCCCC(=O)NO)C1=O	1.44	0.22	2.63	27.9	91.8	91.2	101	> 30
CC[C@H](C)[C@@H]1N=C(c2ccccc2)c2ccccc2NC1=O	> 30	> 30	> 30	0	6.77	1.82	0.56	> 30
C[C@@H](O)[C@@H]1N=C(c2ccccc2)c2ccccc2N(CCCCC(=O)NO)C1=O	11.2	1.8	11.6	40.3	66.5	70.1	94.2	> 30
CC[C@H](C)[C@@H]1N=C(c2ccccc2)c2ccccc2N(CCCCC(=O)O)C1=O	> 30	> 30	> 30	3.99	0	0	0	> 30
CC(C)(C)Oc1ccc(C[C@@H]2N=C(c3ccccc3)c3ccccc3N(CCCCC(=O)O)C2=O)cc1	> 30	> 30	> 30	2.15	4.65	0.28	1.05	> 30

Reference: ChEMBL document CHEMBL3997794, “Design and synthesis of benzodiazepine analogs as isoform-selective human lysine deacetylase inhibitors” (Eur J Med Chem, 2017)
